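In this assay, cells in 96-well plates receive the compound at five concentrations for 48 hours. Endpoints are linearly interpolated between the surrounding concentrations. GI50 marks 50% less growth. Definition used: TGI = concentration required for complete inhibition of growth.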

Our source for the TGI and GI50 values is PubChem BioAssay (NCI).

Some test systems named below: CAKI-1 renal; HT29 colon; IGROV1 ovarian; KM12 colon; LOX IMVI melanoma; NCI/ADR-RES ovarian; SF-268 CNS; SF-295 CNS; SK-MEL-2 melanoma; UACC-257 melanoma.
Experiment in all cases: inhibition of tumour cell growth, NCI panel, 48 h

For the compound `COc1ccc2c(c1)CCc1c(CO)c(COC(=O)NC(C)C)n(C)c1-2`, the TGI in the experiment with CAKI-1 renal came to 77.8 µM; with HT29 colon, 13.5 µM; in the experiment with IGROV1 ovarian, 48.3 µM; with KM12 colon, 28.2 µM; in the experiment with LOX IMVI melanoma it was 25.4 µM; with NCI/ADR-RES ovarian, 59.2 µM. The TGI with SF-268 CNS was 63.8 µM; in the experiment on SF-295 CNS, 57.7 µM; in the experiment on SK-MEL-2 melanoma it was 58 µM; in the experiment on UACC-257 melanoma it was 27.1 µM.

Turning to `CC(C)=C1CCC(CN2CCOCC2)C1=O` (stereo not given), the TGI is 0.908 µM in the experiment on CAKI-1 renal; 20.4 µM in the experiment with HT29 colon; 39.2 µM in the experiment on IGROV1 ovarian; over 51.4 µM with KM12 colon; 41.9 µM in the experiment with LOX IMVI melanoma; 40.8 µM in the experiment on NCI/ADR-RES ovarian. Moreover, the TGI is 45 µM with SF-268 CNS, over 100 µM with SF-295 CNS, 36.6 µM in the experiment on SK-MEL-2 melanoma and 32.5 µM in the experiment with UACC-257 melanoma.

With `COc1ccc2nc3cccc([N+](=O)[O-])c3c(NCCNCCN(C)C)c2c1`, the GI50 was 79.7 nM in the experiment on CAKI-1 renal; 23.8 nM with HT29 colon; 19.5 nM in the experiment on IGROV1 ovarian; 142 nM in the experiment on KM12 colon; 65.2 nM in the experiment with LOX IMVI melanoma; 0.884 µM in the experiment on NCI/ADR-RES ovarian. For the same compound, the GI50 with SF-268 CNS is 161 nM; in the experiment on SF-295 CNS, 62.6 nM; in the experiment on SK-MEL-2 melanoma, 30.8 nM; with UACC-257 melanoma it was 240 nM. Also, the TGI with CAKI-1 renal was determined as 0.616 µM; with HT29 colon it was 0.143 µM; in the experiment with IGROV1 ovarian it was 0.136 µM; in the experiment with KM12 colon, 0.414 µM; in the experiment on LOX IMVI melanoma, 0.305 µM; with NCI/ADR-RES ovarian, 4.67 µM. Moreover, the TGI worked out at 0.715 µM in the experiment with SF-268 CNS, 0.696 µM in the experiment on SF-295 CNS, 0.107 µM in the experiment on SK-MEL-2 melanoma and 0.604 µM with UACC-257 melanoma.

As for `C[C@H](NC(=O)c1c(C(F)F)nn(C)c1Oc1cccc(C(F)(F)F)c1)c1ccc(C(=O)O)cc1`, the GI50 was over 100000 nM in the experiment with CAKI-1 renal; over 100000 nM in the experiment on HT29 colon; over 100000 nM in the experiment with IGROV1 ovarian; over 100000 nM in the experiment on KM12 colon; over 100000 nM in the experiment with LOX IMVI melanoma; over 100 µM in the experiment with NCI/ADR-RES ovarian. Moreover, the GI50 in the experiment with SF-268 CNS, in the experiment with SF-295 CNS, in the experiment on SK-MEL-2 melanoma and in the experiment on UACC-257 melanoma was over 100000 nM in each case. The TGI with CAKI-1 renal, in the experiment on HT29 colon, in the experiment on IGROV1 ovarian, in the experiment with KM12 colon, in the experiment on LOX IMVI melanoma and with NCI/ADR-RES ovarian was over 100 µM in each case. Besides, the TGI in the experiment with SF-268 CNS, in the experiment with SF-295 CNS, with SK-MEL-2 melanoma and with UACC-257 melanoma was over 100 µM in each case.

With `CCOC(=O)C#Cc1c(C(=O)OCC)nnn1[C@@H]1O[C@H](CO)[C@H]2OC3(CCCCC3)O[C@H]21`, the GI50 in the experiment with CAKI-1 renal was 1760 nM; with HT29 colon, 1930 nM; in the experiment on IGROV1 ovarian, 15500 nM; with KM12 colon it was 12200 nM; with LOX IMVI melanoma it was 1310 nM; in the experiment on NCI/ADR-RES ovarian, 7.27 µM. Besides, the GI50 with SF-268 CNS was 14300 nM; with SF-295 CNS, 20900 nM; in the experiment on SK-MEL-2 melanoma, 17700 nM; in the experiment on UACC-257 melanoma it was 2930 nM. The TGI in the experiment with CAKI-1 renal stood at 3.31 µM; in the experiment with HT29 colon, 3.77 µM; with IGROV1 ovarian, 36.7 µM; with KM12 colon it was 27 µM; in the experiment on LOX IMVI melanoma it was 2.83 µM; in the experiment on NCI/ADR-RES ovarian, 29.8 µM. Further, the TGI came out at 34.6 µM with SF-268 CNS, 45.3 µM with SF-295 CNS, 34 µM with SK-MEL-2 melanoma and 7.52 µM in the experiment with UACC-257 melanoma.

Turning to `Cc1cn2c(/C=N/N=C(N)N)c(-c3ccncc3)nc2s1`, the GI50 was over 100000 nM in the experiment with CAKI-1 renal; 20100 nM in the experiment with HT29 colon; 22100 nM in the experiment on IGROV1 ovarian; 5630 nM with KM12 colon; 14900 nM in the experiment with LOX IMVI melanoma; over 100 µM in the experiment on NCI/ADR-RES ovarian. Also, the GI50 is 16700 nM in the experiment with SF-268 CNS, 14300 nM in the experiment with SF-295 CNS, 28300 nM in the experiment on SK-MEL-2 melanoma and 19500 nM in the experiment on UACC-257 melanoma. In addition, the TGI with CAKI-1 renal was over 100 µM; in the experiment on HT29 colon, 46.8 µM; in the experiment on IGROV1 ovarian, 49.2 µM; in the experiment with KM12 colon, 19.6 µM; with LOX IMVI melanoma it was 28.1 µM; with NCI/ADR-RES ovarian, over 100 µM. Further, the TGI in the experiment with SF-268 CNS is 30.7 µM; with SF-295 CNS, 29.2 µM; in the experiment on SK-MEL-2 melanoma it was over 100 µM; in the experiment on UACC-257 melanoma, 38.5 µM.

With `CC/C(Cc1ccccc1)=C(/c1ccc(O)cc1)c1ccc(OCCN2CCCC2)cc1`, the GI50 was 1650 nM in the experiment on CAKI-1 renal; 1720 nM in the experiment with HT29 colon; 1950 nM with IGROV1 ovarian; 1940 nM in the experiment on KM12 colon; 1620 nM in the experiment with LOX IMVI melanoma; 2.1 µM in the experiment with NCI/ADR-RES ovarian. In addition, the GI50 is 1610 nM in the experiment with SF-268 CNS, 1810 nM in the experiment on SF-295 CNS, 2040 nM with SK-MEL-2 melanoma and 2140 nM in the experiment on UACC-257 melanoma. The TGI in the experiment with CAKI-1 renal was 3.52 µM; with HT29 colon it was 3.78 µM; in the experiment with IGROV1 ovarian, 4.5 µM; with KM12 colon, 3.74 µM; with LOX IMVI melanoma, 3.05 µM; in the experiment on NCI/ADR-RES ovarian, 5.44 µM. The TGI with SF-268 CNS was found to be 3.35 µM; with SF-295 CNS, 3.46 µM; in the experiment with SK-MEL-2 melanoma, 3.84 µM; in the experiment on UACC-257 melanoma it was 3.89 µM.

With `CCN(CC)c1ccc(/C=N/NC(=O)CSc2nc3ccccc3c(=O)n2Cc2ccc(S(N)(=O)=O)cc2)c(O)c1`, the GI50 in the experiment with CAKI-1 renal is 1020 nM; in the experiment on HT29 colon it was 3010 nM; with IGROV1 ovarian, 785 nM; in the experiment with KM12 colon it was 569 nM; with LOX IMVI melanoma, 387 nM; in the experiment with NCI/ADR-RES ovarian it was over 100 µM. In addition, the GI50 in the experiment with SF-268 CNS is 766 nM; in the experiment on SF-295 CNS, 1470 nM; with SK-MEL-2 melanoma, 2410 nM; in the experiment on UACC-257 melanoma it was 3030 nM. Besides, the TGI in the experiment with CAKI-1 renal is over 100 µM; in the experiment on HT29 colon it was over 100 µM; in the experiment on IGROV1 ovarian, over 100 µM; with KM12 colon it was over 100 µM; in the experiment on LOX IMVI melanoma, 10.5 µM; with NCI/ADR-RES ovarian, over 100 µM. Besides, the TGI with SF-268 CNS, in the experiment with SF-295 CNS, in the experiment on SK-MEL-2 melanoma and with UACC-257 melanoma was over 100 µM each time.
